Values of other authors as cited in patent publication US20050031690A1, “Stabilized prostaglandin formulation” (Pharmacia Corporation, priority 2003, published 2005).

Conditions: solution state

## CCCCC[C@H](O)/C=C/[C@H]1[C@H](O)CC(=O)[C@@H]1CCCCCCC(=O)O [prostaglandin E1]
  pH region of relative stability: 3-4
